US20080253996A1, “Use of Sdf-1 for the Treatment and/or Prevention of Neurological Diseases” (LABORATORIES SERONO SA, priority 2005, published 2008)

Legend:
sciatic nerve crush mice = experiment: Neuropathy induced by sciatic nerve crush, electrophysiological recording (CMAP); type: in vivo, mouse; conditions: for increase in the CMAP amplitude as compared to untreated mice: SDF-1α 30 μg/kg or μ/kg, IL-6 30 μ/kg s.c., significant at 15 dpl and 22dpl
Description: […] 8 week-old females C57bl/6 RJ mice (Elevage Janvier, Le Genest-St-Isle, France) were used. They were divided into 6 groups (n=6): • (a) nerve crush/Vehicle (Saline/0.02% BSA); • (b) nerve crush/SDF-1α (3 μg/kg); • (c) nerve crush/SDF-1α (10 μg/kg); • (d) nerve crush/SDF-1α (30 μg/kg); • (e) nerve crush/SDF-1α (100 μg/kg); • (f) nerve crush/IL-6 (30 μg/kg).
The animals were anaesthetized by inhalation of 3% Isoflurane (Baxter). The right sciatic nerve was surgically exposed at mid thigh level and crushed at 5 mm proximal to the trifurcation of the sciatic nerve. The nerve was crushed twice for 30s with a haemostatic forceps (width 1.5 mm; Koenig; Strasbourg; France) with a 90-degree rotation between each crush.
Electromyographical (EMG) testing was performed once before the surgery day and each week during 3 weeks following the operation.
The day of nerve crush surgery was considered as dpl 0 (dpl=day post lesion). No test was performed during the 4 days following the crush.
From the day of nerve injury to the end of the study, SDF-1α, IL-6 or Vehicle were administered daily by subcutaneous injections (s.c.) route, 5 days per week.
Electrophysiological recordings were performed using a Neuromatic 2000M electromyograph (EMG) (Dantec, Les Ulis, France). Mice were anaesthetized by inhalation of 3% Isofluran® (Baxter). The normal body temperature was maintained using a heated operating table (Minerve, Esternay, France).
Compound muscle action potential (CMAP) was measured in the gastrocnemius muscle after a single 0.2 ms stimulation of the sciatic nerve at a supramaximal intensity (12.8 mA). The amplitude (mV) and the latency (ms) of the action potential were measured on the operated leg. The measures was also registered on the contralateral (uncrushed) leg of Vehicle treated animals (Baseline). The amplitude is indicative of the number of active motor units, while the distal latency indirectly reflects motor nerve conduction and neuromuscular transmission velocities, which depends in part on the degree of myelination.
Global analysis of the data was performed using one-way ANOVA. Dunnett's test was used further, and data were compared to the “vehicle” control. The level of significance was set at a: p<0.001; b or **: p<0.01; c or *: p<0.05; d: p<0.1. The results were expressed as mean ±standard error of the mean (s.e.m.).
The sciatic nerve crush model described in Example 4 above was carried out to test SDF-1α variant as defined in SEQ ID NO: 4 and the mice were divided into the following 2 groups (n=6):
The SDF-1α variant used in this example and encoded by SEQ ID NO: 4 was expressed with an additional N terminal Methionine. The CMAP duration (time needed for a depolarization and a repolarization session) was also recorded.
The sciatic nerve crush model described in Example 4 above was carried out to test Met-SDF-1α (as defined in SEQ ID NO: 7) and the mice were divided into the following 2 groups (n=6):
(b) nerve crush/Met-SDF-1α variant at 100, 30, and 10 μg/kg s.c.

STZ-rats = experiment: STZ diabetic neuropathy, morphometric analysis of sciatic nerve and skin biopsy; type: in vivo, rat; conditions: day 40 post STZ; for density of intra-epidermal nerve fibers: vs vehicle
Description: Morphometric analysis was performed at the end of the study. The animals were anesthetized by IP injection of 60 mg/kg Imalgéne 500®. A 5 mm-segment of sciatic nerve was excised for histology. The tissue was fixed overnight with 4% glutaraldehyde (Sigma, L'Isle d'Abeau-Chesnes, France) solution in phosphate buffer solution (pH 7.4) and maintained in 30% sucrose at +4° C. until use. The nerve sample was fixed in 2% osmium tetroxide (Sigma) solution in phosphate buffer solution for 2 h, dehydrated in serial alcohol solution, and embedded in Epon. Embedded tissues were then placed at +70° C. during 3 days of polymerization. Transverse sections of 1.5 μm thickness were obtained using a microtome. They were stained with a 1% toluidine blue solution (Sigma) for 2 min, dehydrated and mounted in Eukitt.
Analysis was performed on the entire surface of the nerve section using a semi-automated digital image analysis software (Biocom, France). Once extraneous objects had been eliminated, the software reported the total number of myelinated fibers. The number of degenerated fibers was then counted manually by an operator. Myelinated fibers without axons, redundant myelin and fibers showing sheaths with too large thickness in respect to their axonal diameter were considered as fibers undergoing processes of degeneration. The number of non-degenerated fibers was obtained by subtraction of the number of degenerated fibers.
Morphological analysis was performed only on fibers considered as non-degenerated. For each fiber, the axonal and myelin sizes were reported in surface area (μm^2). These two parameters were used to calculate the equivalent area of g-ratio (axonal diameter/fiber diameter) of each fiber (i.e., [A/(A+M)]^0.5, A=axonal area, M=myelin area), indicative of the relative myelin sheath thickness.
In addition, a 5-10 mm diameter area of skin was punch-biopsied from the hindpaw. Skin samples were immediately fixed overnight in paraformaldehyde at 4° C., incubated (overnight) in 30% sucrose in 0.1 M PBS for cryoprotection, embedded in OCT and frozen at −80° C. until cryocut.
50 μm-thick cryosections were then cut vertical to the skin surface with a cryostat. Free-floating sections were incubated for 7 days in a bath of rabbit anti-protein gene product 9.5 (1:10000; Ultraclone, Isle of Man, UK) at 4° C. The sections were then processed to reveal immunoreactivity according to the ABC peroxidase method. Briefly, they were incubated in for 1 h with biotinylated […] antibody (1:200), then 30 min in the avidin biotinylated complex at room temperature. Peroxidase activity was visualized using DAB system. Sections were then counterstained with eosin or hematoxylin. Sections were dehydrated, clear with bioclear and mounted on eukitt. Photos of microscope fields were performed at 20× power magnification view using Nikon digital camera at focal distance of 12.9 mm. The number of intra-epidermal nerves on 3 microscope fields of […] (544×408 μm) each was counted by the experimenter on computer screen.
Global analysis of the data was performed using one factor or repeated measure analysis of variance (ANOVA) and one-way ANOVA. When ANOVA indicated significant difference, Fisher Protected Least Significant Difference was used as post-hoc test to compare experimental groups with the group of diabetic rats treated with the vehicle. The level of significance was set at p≦0.05. Results are expressed as mean ±standard error of the mean (s.e.m.).

[1] = test system: leukocytes recruited in the peritoneal cavity; experiment: In vivo model of peritoneal cell recruitment; design: species or system mouse; conditions: 4 μg i.p. in Balb/C mice, 4 hours post injection
Description: 8-12 week old, female Balb/C mice (Janvier, France) were injected intra peritoneally (i.p.) with 200 μl NaCl (0.9%, LPS free) or chemokine 4 μg (WT SDF-1α or SDF-1α variant according to SEQ ID NO:4 diluted in 200 μl NaCl (0.9%, LPS free). […] of WT or mutant SDF-1α, mice were sacrificed by CO2 asphyxiation, the peritoneal cavity was washed with 3×5 ml ice cold PBS and the total lavage was pooled for individual mice. Total cells collected were counted by haemocytometer (Neubauer, Germany).

[2] = SDF-1α 10, 30, 100 μg/kg, IL-6 10 μg/kg s.c.
[3] = SDF-1α especially 10 or 30 μg/kg, IL-6 10 μg/kg s.c.

| Substance | increase in the CMAP amplitude as compared to untreated mice (sciatic nerve crush mice) | number of degenerated fibers in the sciatic nerve (STZ-rats; [2]) | density of intra-epidermal nerve fibers (STZ-rats; [2]) | g-ratio (relative myelin thickness) vs STZ/Vehicle group (STZ-rats; [3]) | leukocyte recruitment in the peritoneal cavity [1] | potency on CMAP latency compared with IL-6 (30 μg/kg) (sciatic nerve crush mice; 30 μg/kg s.c.) | CMAP latency vs vehicle treated mice (sciatic nerve crush mice; day 7, SDF-1α 30 μg/kg and 100 μg/kg, IL-6 30 μg/kg s.c.) | CMAP latency vs vehicle treated mice (sciatic nerve crush mice; dpl 15 and 22, 30 μg/kg and 100 μg/kg s.c.) | g-ratio (relative myelin thickness) vs STZ/Vehicle group (STZ-rats; 100 μg/kg s.c.) | number of degenerated fibers in the sciatic nerve (STZ-rats; lowest dose 10 μg/kg s.c. (best effect)) |
| --- | --- | --- | --- | --- | --- | --- | --- | --- | --- | --- |
| IL-6: reference (positive) control compound in nerve crush and STZ models [reference compound] | about 1.5 times | significantly reduced population of degenerated fibers | markedly prevented | significant reduction | – | – | – | – | – | – |
| SDF-1α: Human recombinant chemokine SDF-1α (SEQ ID NO: 1), produced in house, expressed in E. Coli cells | about 1.5 times | reduction of degenerated fibers population | significantly greater density | significantly reduced | recruits leukocytes | more potent than IL-6 | significantly reduced | significant effect | did not reach the significance level | reached the significance level |
